Results from patent US9976141B2, “Compositions and methods for inhibiting gene expression of Hif2alpha” (Arrowhead Madison Inc., priority 2015, dated 2018).
Where “and” joins values, the source holds several entries; their conditions need not be identical. Equal values may be shown once.

Test system: human (tumor) Hif2α (EPAS1) mRNA
Assay: Hif2α knockdown in orthotopic RCC tumor bearing mice, single injection of RNAi trigger-delivery polymer conjugate, RT-qPCR (Table 7)
Type: in vivo
Details: single tail vein injection, relative to isotonic glucose
In short: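 A single intravenous dose of Hif2α RNAi trigger–delivery polymer conjugate, or isotonic glucose vehicle, was given to nude mice with subcapsular A498-SEAP renal tumours (about 5–6 weeks old). At the indicated time, tumour RNA was assayed by biplex TaqMan qPCR against CycA, and relative expression was calculated by ΔΔCT versus vehicle.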

[1] = RNAi trigger 75 μg, polymer 064 187.5 μg

Substance	Relative Expression day 4 (Hif2α mRNA in kidney tumor) (RNAi trigger 50 μg, polymer 064 125 μg)	Relative Expression day 4 (Hif2α mRNA in kidney tumor) [1]
AD02692 (antisense UUUCAUGAAAUCGUUACGUUG; sense ACGUAACGAUUUCAUGAAAT; Hif2alpha RNAi agent antisense strand; modified_base 2,4,6,8,10,14,16,18 /mod_base = “2′-deoxy-2′-fluoro corresponding nucleoside”; modified_base 1,3,5,7,9,11,12,13,15,17,19,20,21 /mod_base = “2′-O-methyl corresponding nucleoside”; modified_base 2,3,20,21 /mod_base = “5′-phosphorothioate corresponding nucleotide”; Hif2alpha RNAi agent sense strand; modified_base 3,5,7,8,9,13,15,17 /mod_base = “2′-deoxy-2′-fluoro corresponding nucleoside”; modified_base 1,2,4,6,10,11,12,14,16,18,19 /mod_base = “2′-O-methyl corresponding nucleoside”; modified_base 20 /mod_base = “3′-3′-linked nucleotide”; modi)	0.092	0.089 and 0.121
AD02693 (antisense UUUCAUGAAAUCGUUACGUUG; sense ACGUAACGAUUUCAUGAAAT; Hif2alpha RNAi agent antisense strand; modified_base 2,4,6,8,10,14,16,18 /mod_base = “2′-deoxy-2′-fluoro corresponding nucleoside”; modified_base 1,3,5,7,9,11,12,13,15,17,19,20,21 /mod_base = “2′-O-methyl corresponding nucleoside”; modified_base 2,3,20,21 /mod_base = “5′-phosphorothioate corresponding nucleotide”; Hif2alpha RNAi agent sense strand; modified_base 5,7,9,13,15,17 /mod_base = “2′-deoxy-2′-fluoro corresponding nucleoside”; modified_base 1,2,3,4,6,8,10,11,12,14,16,18,19 /mod_base = “2′-O-methyl corresponding nucleoside”; modified_base 20 /mod_base = “3′-3′-linked nucleotide”; modi)		0.122
AD02694 (antisense UUUCAUGAAAUCGUUACGUUG; sense ACGUAACGAUUUCAUGAAAT; Hif2alpha RNAi agent antisense strand; modified_base 2,4,6,8,10,14,16,18 /mod_base = “2′-deoxy-2′-fluoro corresponding nucleoside”; modified_base 1,3,5,7,9,11,12,13,15,17,19,20,21 /mod_base = “2′-O-methyl corresponding nucleoside”; modified_base 2,3,20,21 /mod_base = “5′-phosphorothioate corresponding nucleotide”; Hif2alpha RNAi agent sense strand; modified_base 3,7,9,13,17 /mod_base = “2′-deoxy-2′-fluoro corresponding nucleoside”; modified_base 1,2,4,5,6,8,10,11,12,14,15,16,18,19 /mod_base = “2′-O-methyl corresponding nucleoside”; modified_base 20 /mod_base = “3′-3′-linked nucleotide”; modi)		0.099
